Data as given in ChEMBL document CHEMBL5113529, “Design, Synthesis, and Biological Evaluation of Dual-Target COX-2/CYP51 Inhibitors for the Treatment of Fungal Infectious Diseases” (J Med Chem, 2022).
Converted amounts (≈) assume the structure as drawn. The source made the active and inactive calls. No cut-off for these calls is given here.

Experiments:
Candida albicans [1] = test: Antifungal activity against Candida albicans ATCC SC5314 assessed as fungal growth inhibition measured after 72 hrs by double dilution method; format: functional
Cryptococcus neoformans [2] = test: Antifungal activity against Cryptococcus neoformans ZKCC 2209 assessed as fungal growth inhibition measured after 72 hrs by double dilution method; format: functional
Candida tropicalis [3] = test: Antifungal activity against Candida tropicalis ATCC 1369 assessed as fungal growth inhibition measured after 72 hrs by double dilution method; format: functional
Pichia kudriavzevii [4] = test: Antifungal activity against Candida krusei ATCC 6258 assessed as fungal growth inhibition measured after 72 hrs by double dilution method; format: functional
Aspergillus fumigatus [5] = test: Antifungal activity against Aspergillus fumigatus KM8001 assessed as fungal growth inhibition measured after 72 hrs by double dilution method; format: functional
Candida albicans [6] = test: microbe, parasite or virus in culture; conditions: Candida albicans, 904, 72 h
Description: Antifungal activity against fluconazole- resistant Candida albicans 904 assessed as fungal growth inhibition measured after 72 hrs in presence of fluconazole by double dilution method

Cryptococcus neoformans [7] = test: microbe, parasite or virus in culture; conditions: ZKCC 2209, 72 h
Description: Antifungal activity against Cryptococcus neoformans ZKCC 2209 assessed as fungal growth inhibition measured after 72 hrs in presence of fluconazole by double dilution method

Candida albicans [8] = test: Antifungal activity against fluconazole- resistant Candida albicans CaR assessed as fungal growth inhibition measured after 72 hrs in presence of fluconazole by double dilution method
Candida albicans [9] = test: microbe, parasite or virus in culture; conditions: Candida albicans, 632, 72 h
Description: Antifungal activity against fluconazole- resistant Candida albicans 632 assessed as fungal growth inhibition measured after 72 hrs in presence of fluconazole by double dilution method

Candida tropicalis [10] = test: microbe, parasite or virus in culture; conditions: ATCC 1369, 72 h
Description: Antifungal activity against Candida tropicalis ATCC 1369 assessed as fungal growth inhibition measured after 72 hrs in presence of fluconazole by double dilution method

Candida albicans [11] = test: microbe, parasite or virus in culture; conditions: Candida albicans, 901, 72 h
Description: Antifungal activity against fluconazole- resistant Candida albicans 901 assessed as fungal growth inhibition measured after 72 hrs in presence of fluconazole by double dilution method

Candida albicans [12] = test: Antifungal activity against fluconazole- resistant Candida albicans 17# assessed as fungal growth inhibition measured after 72 hrs in presence of fluconazole by double dilution method
Aspergillus fumigatus [13] = test: Antifungal activity against Aspergillus fumigatus KM8001 assessed as fungal growth inhibition measured after 72 hrs in presence of fluconazole by double dilution method; conditions: KM8001, 72 h
Candida albicans [14] = test: Antifungal activity against Candida albicans ATCC SC5314 assessed as fungal growth inhibition measured after 72 hrs in presence of fluconazole by double dilution method; conditions: ATCC SC5314, 72 h
[15] = target: T1, Prostaglandin G/H synthase 2 (Homo sapiens, UniProt P35354); test: Inhibition of COX-2 (unknown origin) using arachidonic acid as substrate preincubated for 10 mins followed by substrate addition and measured after 2 mins by immunoassay
T1 sequence (P35354 whole entry): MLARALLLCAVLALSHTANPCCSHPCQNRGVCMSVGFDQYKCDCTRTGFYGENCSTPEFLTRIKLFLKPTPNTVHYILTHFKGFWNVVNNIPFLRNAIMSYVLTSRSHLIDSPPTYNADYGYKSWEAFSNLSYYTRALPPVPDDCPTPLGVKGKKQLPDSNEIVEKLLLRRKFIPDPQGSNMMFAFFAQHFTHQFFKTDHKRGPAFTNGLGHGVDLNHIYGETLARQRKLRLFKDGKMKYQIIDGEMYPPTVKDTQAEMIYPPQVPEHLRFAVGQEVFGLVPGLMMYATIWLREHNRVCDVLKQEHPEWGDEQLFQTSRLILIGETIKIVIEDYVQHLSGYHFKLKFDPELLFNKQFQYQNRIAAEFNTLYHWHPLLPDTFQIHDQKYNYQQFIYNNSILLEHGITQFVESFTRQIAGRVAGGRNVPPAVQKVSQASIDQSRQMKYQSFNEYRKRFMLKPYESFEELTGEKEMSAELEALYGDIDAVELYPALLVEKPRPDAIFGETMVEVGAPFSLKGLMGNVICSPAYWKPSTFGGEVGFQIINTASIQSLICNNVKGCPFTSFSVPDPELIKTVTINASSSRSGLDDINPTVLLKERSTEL

Pichia kudriavzevii [16] = test: microbe, parasite or virus in culture; conditions: ATCC 6258, 72 h
Description: Antifungal activity against Candida krusei ATCC 6258 assessed as fungal growth inhibition measured after 72 hrs in presence of fluconazole by double dilution method

Candida albicans [17] = test: Induction of mitochondrial membrane potential loss in Candida albicans ATCC SC5314 assessed as polarized cells at 1 umol/ml incubated for 24 hrs by JC-1 staining based flow cytometry assay (reference value: 0.69%); format: functional; conditions: dose 1 µmol/L, at 1 µM
Candida albicans [18] = test: Induction of apoptosis in Candida albicans ATCC SC5314 assessed as mid apoptotic cells incuabted for 24 hrs by V-FITC/PI staining based flow cytometry analysis (reference value: 1.09%); format: functional
Candida albicans [19] = test: Induction of apoptosis in Candida albicans ATCC SC5314 assessed as necrotic cells incuabted for 24 hrs by V-FITC/PI staining based flow cytometry analysis (reference value: 1.77%); format: functional
Candida albicans [20] = test: Induction of apoptosis in Candida albicans ATCC SC5314 assessed as normal cells incuabted for 24 hrs by V-FITC/PI staining based flow cytometry analysis (reference value: 96.78%); format: functional
Candida albicans [21] = test: Induction of mitochondrial membrane potential loss in Candida albicans ATCC SC5314 assessed as depolarized cells at 1 umol/ml incubated for 24 hrs by JC-1 staining based flow cytometry assay (reference value: 0.76 to 3.29%); format: functional; conditions: dose 1 µmol/L, at 1 µM
Candida albicans [22] = test: Induction of mitochondrial membrane potential loss in Candida albicans ATCC SC5314 assessed as normal cells at 1 umol/ml incubated for 24 hrs by JC-1 staining based flow cytometry assay (reference value: 95.26%); format: functional; conditions: dose 1 µmol/L, at 1 µM
Candida albicans [23] = test: Induction of apoptosis in Candida albicans ATCC SC5314 assessed as late apoptotic cells incuabted for 24 hrs by V-FITC/PI staining based flow cytometry analysis (reference value: 0.36%); format: functional
Candida albicans [24] = test: Antifungal activity against Candida albicans ATCC SC5314 assessed as induction of ROS production by measuring fluorescence intensity incubated for 12 hrs by KGT010-1 staining based fluorescence microscopy; format: functional, organism-based
Candida albicans [25] = test: Antifungal activity against fluconazole- resistant Candida albicans 17# assessed as fungal growth inhibition measured after 72 hrs by double dilution method; format: functional
Candida albicans [26] = test: Antifungal activity against fluconazole -resistant Candida albicans 901 assessed as fungal growth inhibition measured after 72 hrs by double dilution method; format: functional
Candida albicans [27] = test: Antifungal activity against fluconazole -resistant Candida albicans CaR assessed as fungal growth inhibition measured after 72 hrs by double dilution method; format: functional
Candida albicans [28] = test: Antifungal activity against fluconazole -resistant Candida albicans 904 assessed as fungal growth inhibition measured after 72 hrs by double dilution method; format: functional
Candida albicans [29] = test: Antifungal activity against fluconazole -resistant Candida albicans 632 assessed as fungal growth inhibition measured after 72 hrs by double dilution method; format: functional

Compound | MIC50 (Candida albicans [1]) [µg/mL] | MIC50 (Cryptococcus neoformans [2]) [µg/mL] | MIC50 (Candida tropicalis [3]) [µg/mL] | MIC50 (Pichia kudriavzevii [4]) [µg/mL] | MIC50 (Aspergillus fumigatus [5]) [µg/mL] | further results
C[C@H](C(=O)NC(Cn1ccnc1)C(=O)c1ccccc1)c1cccc(C(=O)c2ccccc2)c1 (some centres undefined) | 1 (≈ 2.21 µM) | 1 (≈ 2.21 µM) | 0.5 (≈ 1.11 µM) | 0.5 (≈ 1.11 µM) | 4 (≈ 8.86 µM) | –
COc1ccc2cc([C@H](C)C(=O)O)ccc2c1 [NAPROXEN] | – | – | – | – | – | MIC50 (Candida albicans [6]): 2 µg/mL (≈ 8.69 µM); MIC50 (Cryptococcus neoformans [7]): 0.25 µg/mL (≈ 1.09 µM); MIC50 (Candida albicans [8]): 2 µg/mL; MIC50 (Candida albicans [9]): 4 µg/mL (≈ 17.4 µM); MIC50 (Candida tropicalis [10]): 0.5 µg/mL (≈ 2.17 µM); MIC50 (Candida albicans [11]): 4 µg/mL (≈ 17.4 µM); MIC50 (Candida albicans [12]): 4 µg/mL; MIC50 (Aspergillus fumigatus [13]): 4 µg/mL; MIC50 (Candida albicans [14]): 0.25 µg/mL; IC50 [15]: 2390 nM; MIC50 (Pichia kudriavzevii [16]): 1 µg/mL (≈ 4.34 µM)
COC(=O)[C@@H](Cn1cncn1)NC(=O)[C@@H](C)c1cccc(C(=O)c2ccccc2)c1 | 0.5 (≈ 1.23 µM) | 1 (≈ 2.46 µM) | 1 (≈ 2.46 µM) | 0.5 (≈ 1.23 µM) | 2 (≈ 4.92 µM) | Activity (Candida albicans [17]): 0.54%; Activity (Candida albicans [18]): 0.26%; Activity (Candida albicans [19]): 34.69%; Activity (Candida albicans [20]): 64.15%; Activity (Candida albicans [21]): 0.9%; Activity (Candida albicans [22]): 54.56%; Activity (Candida albicans [23]): 0.9%
C[C@H](C(=O)NC(Cn1cncn1)C(=O)c1ccccc1)c1cccc(C(=O)c2ccccc2)c1 (some centres undefined) | 5 (≈ 11 µM) | 0.5 (≈ 1.1 µM) | 0.5 (≈ 1.1 µM) | 1 (≈ 2.21 µM) | 4 (≈ 8.84 µM) | –
CC(=O)N1CCN(c2ccc(OCC3COC(Cn4ccnc4)(c4ccc(Cl)cc4Cl)O3)cc2)CC1 (centres undefined) [KETOCONAZOLE] | 0.5 (≈ 0.941 µM) | 1 (≈ 1.88 µM) | 0.5 (≈ 0.941 µM) | 0.5 (≈ 0.941 µM) | > 8 | MIC50 (Candida albicans [25]): 4 µg/mL (≈ 7.53 µM); MIC50 (Candida albicans [26]): 4 µg/mL (≈ 7.53 µM); MIC50 (Candida albicans [27]): 4 µg/mL (≈ 7.53 µM); MIC50 (Candida albicans [28]): > 8 µg/mL; MIC50 (Candida albicans [29]): > 8 µg/mL

Continued, in another order:

MIC50 (Candida albicans [1]) [µg/mL] | MIC50 (Cryptococcus neoformans [2]) [µg/mL] | MIC50 (Candida tropicalis [3]) [µg/mL] | MIC50 (Pichia kudriavzevii [4]) [µg/mL] | MIC50 (Aspergillus fumigatus [5]) [µg/mL] | Compound | further results
0.25 (≈ 0.654 µM) | 0.25 (≈ 0.654 µM) | 0.25 (≈ 0.654 µM) | 1 (≈ 2.61 µM) | 4 (≈ 10.5 µM) | COC(=O)[C@@H](Cn1cncn1)NC(=O)[C@@H](C)c1ccc2cc(OC)ccc2c1 | –
0.25 (≈ 0.585 µM) | 0.5 (≈ 1.17 µM) | 0.5 (≈ 1.17 µM) | 0.5 (≈ 1.17 µM) | 2 (≈ 4.68 µM) | COc1ccc2cc([C@H](C)C(=O)NC(Cn3ccnc3)C(=O)c3ccccc3)ccc2c1 (some centres undefined) | –
1 (≈ 2.31 µM) | 1 (≈ 2.31 µM) | 2 (≈ 4.61 µM) | 0.5 (≈ 1.15 µM) | > 8 | CC(C)OC(=O)[C@@H](Cn1ccnc1)NC(=O)[C@@H](C)c1cccc(C(=O)c2ccccc2)c1 | –
0.5 (≈ 1.26 µM) | 2 (≈ 5.05 µM) | 2 (≈ 5.05 µM) | 1 (≈ 2.52 µM) | 4 (≈ 10.1 µM) | COC(=O)[C@@H](Cn1cncn1)NC(=O)[C@@H](C)c1ccc(-c2ccccc2)c(F)c1 | –
0.5 (≈ 1.22 µM) | 0.5 (≈ 1.22 µM) | 1 (≈ 2.44 µM) | 0.25 (≈ 0.611 µM) | 4 (≈ 9.77 µM) | COc1ccc2cc([C@H](C)C(=O)N[C@H](Cn3ccnc3)C(=O)OC(C)C)ccc2c1 | –
1 (≈ 2.23 µM) | 1 (≈ 2.23 µM) | 0.5 (≈ 1.11 µM) | 0.5 (≈ 1.11 µM) | 4 (≈ 8.92 µM) | COc1ccc2cc([C@H](C)C(=O)N[C@H](Cn3ccnc3)C(=O)NC3CCCCC3)ccc2c1 | Activity (Candida albicans [24]): Active
0.25 (≈ 0.609 µM) | 0.5 (≈ 1.22 µM) | 0.5 (≈ 1.22 µM) | 1 (≈ 2.44 µM) | 4 (≈ 9.74 µM) | COc1ccc2cc([C@H](C)C(=O)N[C@H](Cn3cncn3)C(=O)OC(C)C)ccc2c1 | –
